What was measured:
RNA3WJ_1.1.1_5IB_3FAM = assay: Thermal shift binding assay; conditions: 1 μM RNA, 8 μM compound
Description: (§1) Purpose: Test binding of compounds for RNA three way junction (for example, a construct of 38 nt). Thermal shift assay based on established fluorescence quenching assay utilizing FAM as fluorescence tag and Iowa Black as quencher. Tags were attached at the 3′ and 5′ end, respectively. Stable formation of 3WJ upon compound binding would lead to quenching of the FAM fluorescence due to close proximity of the Iowa Black tag. Thermal unfolding leads to increase of fluorescence emission. Assay readout: FAM (465-510 nm) Thermal Shift.
(§2) Assay sample buffer used: 10 mM CacoK pH 7.2, 30 mM NaCl. Buffer preparation in Dnase/Rnase Free distilled water (Gibco Life Technologies).
(§3) Tool compounds provided as dry powder are prepared as 50 mM stock solution in 100% d6-DMSO. Stock solutions of 50 mM concentration in d6-DMSO are stored at RT.
(§4) Sample plate: Roche, Light Cycler480 Multiwell Plate96, white, REF 04729692001. (Dilution plate: Greiner REF 781101, PS-Microplate, 384 well, clear). Thermal Shift device: Roche, Light Cycler480.
(§5) Daily fresh (10 ml): 1 ml 100 mM CacoK pH 7.2 and 0.3 ml 1 M NaCl filled up to 10 ml with Dnase/Rnase Free distilled water.
(§6) Dilute the RNA 1:10 (final 10 μM) in Assay Buffer.
(§7) Heat up the diluted RNA up to 90° C. for 5 min (sealed Eppendorf Tube).
(§8) Cool down the RNA probe slowly to RT.
(§9) Dilute the compounds to 800 μM in DMSO (Assay: 8 μM).
(§10) 78.4 μL Assay Buffer are pipetted into Greiner REF 781101, PS-Microplate, 384 (each well needed).
(§11) Add 0.8 μL of the RNA-Solution ([…]).
(§12) Add 0.8 μL Compound-Solution ([…]).
(§13) Final concentrations in the sample: 1 μM RNA, 8 μM compound, 1% DMSO
(§14) Pipet 20 μL Sample Solution into Roche, Light Cycler480 Multiwell Plate96, white, REF 04729692001.
(§15) When sample transfer is finished, seal the plate with a clear topseal (part of REF 04729692001).
(§16) Centrifuge the plate with a table-top device to spin down the samples.
(§17) Measure the 96 plate with the LightCycler480 (Channel: 480/510 nm; Temperature: 41-91° C.).
(§18) Analyse measurement-data with the MeltingCurveGenotyping Mode.
(§19) Settings: Acquisition mode: continuous; Ramp rate: 0.1 C.°/sec; Acquisition: 6/C.° Melt Curve Genotyping for All Samples
(§20) Melting curves analysis show melting temperature (Tm) of ˜51° C. Range of RNA concentrations was tested and assay window was determined (conc. range of 0.5-1 μM yields best results). The choice of buffer also affected the Tm. RNA constructs were tested under different buffer conditions (especially in presence of salt) in the thermal shift assay. […] CacoK with 30 mM salt at 1 μM RNA conc. was used to assess compound effects on 3WJ stability. […] These conditions were used for screening test compounds.

RNA3WJ_2.0.0_5IB_3FAM = assay: Thermal shift binding assay; conditions: 1 μM RNA, 8 μM compound
Description: as §1, §2, §3, §4, §5, §6, §7, §8, §9, §10, §11, §12, §13, §14, §15, §16, §17, §18, §19, §20

RNA3WJ_2.1.0_5IB_3FAM = assay: Thermal shift binding assay; conditions: 1 μM RNA, 8 μM compound
Description: as §1, §2, §3, §4, §5, §6, §7, §8, §9, §10, §11, §12, §13, §14, §15, §16, §17, §18, §19, §20

[1] = tested on: Split3WJ.2 up_5IB+Split3WJ.2_down_3FAM (trans 3WJ as 1:1 mix); assay: Fluorescence quenching binding assay; conditions: trans 3WJ Split3WJ.2; two concentration points; FIG. 109
Protocol: (§21) This assay will be used to test binding of compounds for RNA three way junction (such as a 38 nt construct). This is a fluorescence quenching assay utilizing FAM as fluorescence tag and Iowa Black as quencher. Tags are attached at the 3′ and 5′ end, respectively. Stable formation of MW upon compound binding would lead to quenching of the FAM fluorescence due to close proximity of the Iowa Black tag. Assay readout: FAM (485-520 nm) Fluorescence Intensity.
as §2, §3
(§22) Sample plate: Greiner cat #784076, black, 384 (Dilution plate: Greiner REF 781101, PS-Microplate, 384 well, clear). Fluorescence Intensity device: Envision 1040285
(§23) Daily fresh (10 ml): 1 ml 100 mM CacoK pH 7.2 and 0.3 ml 1 M NaCl filled up to 10 ml with Dnase/Rnase Free distilled water […]
(§24) Calibration of the expected fluorescence signal at various RNA concentrations in either CacoK or NaPO4 buffers was performed first. Experiments in buffers containing salt show distinct fluorescence quenching behavior. […]
(§25) The fluorescence quenching experiment was repeated for compounds Ark0000013 and Ark0000014 to measure binding with: […]

[2] = tested on: Split3WJ.1_up_5IB+Split3WJ.1_down_3FAM (trans 3WJ as 1:1 mix); assay: Fluorescence quenching binding assay; conditions: trans 3WJ Split3WJ.1; two concentration points; FIG. 109
Protocol: as §21, §2, §3, §22, §23, §24, §25

RNA3WJ_3.0.0_5IB_3FAM = assay: Thermal shift binding assay; conditions: 1 μM RNA, 8 μM compound
Description: as §1, §2, §3, §4, §5, §6, §7, §8, §9, §10, §11
Add 0.8 μL Compound-Solution ([…]). […]
as §14, §15, §16, §17, §18, §19, §20

Row | Melting temp [° C.] + cmpd (RNA3WJ_1.1.1_5IB_3FAM) | Temp. Shift [° C.] (RNA3WJ_1.1.1_5IB_3FAM) | Melting temp [° C.] + cmpd (RNA3WJ_2.0.0_5IB_3FAM) | Temp. Shift [° C.] (RNA3WJ_2.0.0_5IB_3FAM) | Melting temp [° C.] + cmpd (RNA3WJ_2.1.0_5IB_3FAM) | Temp. Shift [° C.] (RNA3WJ_2.1.0_5IB_3FAM) | Melting temp [° C.] + cmpd (RNA3WJ_3.0.0_5IB_3FAM) | Temp. Shift [° C.] (RNA3WJ_3.0.0_5IB_3FAM) | SMILES | Effect in fluorescence quenching assay [1] | Effect in fluorescence quenching assay [2]
1 | 82.9 °C | 20.7 °C | 84.3 °C | 22.1 °C | 45.7 °C | 3.8 °C | 83.7 °C | 21.7 °C | CN(CCCN)CCCNC(=O)c1ccc2c(c1)C1c3cc(C(=O)NCCCN(C)CCCN)ccc3C2c2ccc(C(=O)NCCCN(C)CCCN)cc21 [Ark0000013, N^2,N^7,N^15-tris(3-((3-aminopropyl)(methyl)amino)propyl)-9,10-dihydro-9,10-[1,2]benzenoanthracene-2,7,15-tricarboxamide] | significant concentration dependent effect | significant concentration dependent effect
2 | 64.3 °C | 2.1 °C | 64.4 °C | 2.2 °C | 42.0 °C | 0.1 °C | 63.9 °C | 1.9 °C | NCCCCCCCNC(=O)c1ccc2c(c1)C1c3cc(C(=O)NCCCCCCCN)ccc3C2c2ccc(C(=O)NCCCCCCCN)cc21 [Ark0000014, N^2,N^7,N^15-tris(7-aminoheptyl)-9,10-dihydro-9,10-[1,2]benzenoanthracene-2,7,15-tricarboxamide] | smaller effect on the RNA constructs (Split3WJ_2 shows larger effect) | smaller effect

Reference: US20220281860A1, “COMPOUNDS AND METHODS OF TREATING RNA-MEDIATED DISEASES” (Arrakis Therapeutics, Inc., priority 2016, published 2022)
